From US20260283977A1, “ADIPOCYTE GROWTH INHIBITOR” (WATANABE OYSTER LABORATORY CO., LTD., priority 2023, published 2026) come the findings set out here.

Holding throughout (format): cell-based, mouse
One assay deals with 3T3-L1 preadipocytes. Put plainly: Cell proliferation of 3T3-L1 preadipocytes (living cell count). The procedure: […] Furthermore, in an experiment to measure cell proliferation, 3T3-L1 preadipocytes (1×10^5/ml per well of a 24-well plate) were cultured for three days in a culture fluid containing a vehicle (1% ethanol as the final concentration) or DHMBA (0.1, 1, 10, 100, or 1000 μM).
After the culture, adhering cells were separated from each well by adding an aseptic solution containing 0.05% trypsin and EDTA (0.1 ml per well) in PBS (Thermo Fisher Scientific, Waltham, MA, USA) not containing Ca^2+/Mg^2+ and incubating the cells for two minutes. Afterward, 0.9 ml of DMEM containing 10% FBS was added to each well to prepare cell suspensions. In order to measure the number of living cells, a medium (0.1 ml) containing suspension cells was mixed with 0.1 ml of 0.5% trypan blue staining solution. The living cells were counted under a microscope (Olympus MTV-3) using a cell counter (Line Seiki H-102P, Tokyo, Japan) and a hemocytometer (Sigma-Aldrich, St. Louis, Missouri). Two counts were averaged in each measurement. The number of cells was shown as the number per well of a culture plate.

The subject of a further assay is PPARγ. As to the kind of experiment: Western blotting, PPARγ level in 3T3-L1 adipocytes. Particulars: DHMBA 10 μM, day 2 to 4 of differentiation; FIG. 7. The procedure:
(§1) 3T3-L1 preadipocytes (1×10^6 cells/100 mm dish used, in 10 ml of culture fluid) were cultured for three days, at which point they reached sub-confluence, in DMEM containing 10% BCS and 1% P/S. Then, the cells were cultured for two days in a DMEM differentiation culture fluid containing 10% FBS, 1% P/S, 0.5 mM IBMX, and 1 μM dexamethasone. […] After the culture, the culture dish was washed three times with cold PBS (10 ml) to eliminate floating cells and dead cells, and adhering cells were scraped using a cell lysis solution containing protease and protein phosphatase inhibitors (Roche Diagnostics, Indianapolis, IN, USA). Next, the cell lysates were centrifuged for 10 minutes at 17,000×g at 4° C. The concentration of proteins in the supernatant was quantified using Bio-Rad Protein Assay Dye (Bio-Rad Laboratories, Inc., Hercules, CA, USA) with bovine serum albumin as a standard. The extracted protein samples were stored at −80° C. until they were used. […]
(§2) After the incubation, the PVDF membrane was incubated at room temperature for 60 minutes in a horseradish peroxidase-conjugated secondary antibody (Santa Cruz Biotechnology, Inc., mouse sc-2005 or rabbit sc-2305; 1:1,000 dilution). Protein bands transferred to the PVDF membrane were detected on an X-ray film using a chemiluminescent substrate (catalog No. 34577, Thermo Scientific, Rockford, IL, USA). […]
For orientation: In western blotting, separated proteins are transferred to a membrane and probed.

For a further assay, the system named is C/EBPα. As to the kind of experiment: Western blotting, C/EBPα level in 3T3-L1 adipocytes. Particulars: DHMBA 10 μM, day 2 to 4 of differentiation; FIG. 7. The procedure:
as §1, §2

The subject of the next assay is MAPK. As to the kind of experiment: Western blotting, MAPK level in 3T3-L1 adipocytes. Particulars: DHMBA 10 μM, day 2 to 4 of differentiation; FIG. 7. The procedure: as §1, §2
The next assay has as its system phosphorylated MAPK. Put plainly: Western blotting, phosphorylated MAPK level in 3T3-L1 adipocytes. Particulars: DHMBA 10 μM, day 2 to 4 of differentiation; FIG. 7. The procedure:
as §1, §2

In a further assay the test system is mTOR. Put plainly: Western blotting, mTOR level in 3T3-L1 adipocytes. Particulars: DHMBA 10 μM, day 2 to 4 of differentiation; FIG. 7. The procedure:
as §1, §2

With `COc1c(O)cc(CO)cc1O` [DHMBA, 3,5-dihydroxy-4-methoxybenzyl alcohol], the “Cell proliferation (number of cells), time course” value in the assay on 3T3-L1 preadipocytes (DHMBA 10 μM, cultured one to five days, effect at three to five days, FIG. 2A) is “suppressed”. Also, the “Cell proliferation (number of cells), concentration dependence” value in the assay on 3T3-L1 preadipocytes (cultured three days, DHMBA 0.1, 1, 10, 100 or 1000 μM, FIG. 2B) is “suppressed at concentrations ranging from 1 μM to 1000 μM”. Further, the PPARγ protein level result with PPARγ is “reduced”. In the assay with C/EBPα, the C/EBPα protein level result is “reduced”. Moreover, the MAPK protein level result in the assay on MAPK is “reduction”. In the assay on phosphorylated MAPK, the “Phosphorylated MAPK protein level” value is given as “reduction”. For the same molecule, the mTOR protein level entry in the assay with mTOR is given as “reduction”.
